The values that follow come from a melting point compilation (Tetko et al.; mined from patent text by program, amines drawn as free bases though some values may be those of a salt).

For the compound `COc1cccc2c1-c1ccc(NS(C)(=O)=O)cc1C(c1cccc(N(C)C(C)=O)c1)O2` (stereo unspecified), the melting point lay in the range of 165 to 168 °C.

Turning to `COC(=O)c1sc2ccc(OC)cc2c1OCC#N`, the melting point is 160 °C.

The compound `COC(=O)CCc1ccc(CCc2csc(NC(C)=O)n2)s1` came in with a melting point of 104 to 106 °C.

`COc1ccc(-c2nc(CC(N)=O)sc2-c2ccc(OC)cc2)cc1`: the melting point was 124 to 127 °C.

`C=CCCC(F)c1cc(C2(c3ccc(OC(F)F)cc3)N=C(N)N(C)C2=O)ccc1F` (stereo unspecified) had a melting point of 50 to 55 °C.

The compound `NNC1=NCCCCN1` displayed a melting point of 133 to 135 °C.

Take `O=C1c2ccccc2C(O)N1CCCSc1ccncc1` (stereo unspecified): the melting point is 132 to 134 °C.

Compound `CCn1c(=O)c(C)cc2cnc(Nc3ccccc3)nc21` had a melting point of 178 to 180 °C.

The compound `O=C(NCc1ccc(Cl)cc1)c1cnc2c(CNCc3ccccc3)cc(CN3CCOCC3)cc2c1O` displayed a melting point of 214 to 216 °C.

`CC(NC(=O)Cc1cc(F)cc(F)c1)C(=O)NC1C(=O)NC(C)c2ccccc21` (stereo unspecified) displayed a melting point of 205 to 206 °C.

The compound `CCCCCCCCCCCCCCCCCCCC(C)=O` yielded a melting point of 41 to 42 °C.

In turn, `COc1cc2cc3c(Cl)c(C#N)cnc3cc2cc1O` showed a melting point of more than 300 °C.

`CCCCCCCCCCCCCCCCC(C)c1cccc2c1OC(=O)C2c1ccccc1` (stereo unspecified) had a melting point of 60 to 62 °C.

For the compound `COc1cccc(C(O)c2nc3c(cc2C)CCCCC3)c1` (stereo unspecified), the melting point lay within 104 to 106 °C.

For `COc1nc(C)nc(NC(=O)NS(=O)(=O)c2ccccc2C(=O)Nc2nc[nH]n2)n1`, the melting point was in the range of 176 to 179 °C.

`O=c1ssc(N2CCc3ccccc3CC2)c1Cl` registered a melting point of 141 °C.

As for `Cc1sc(-c2ccccc2)nc1COc1ccc(COc2ccccc2CC(=O)O)cc1`, the melting point is 122 to 123 °C.

Compound `O=C(O)CN1CC(c2ccc(Cl)cc2)CC1=O` (stereo unspecified) displayed a melting point of 142 to 143 °C.

`CCN(CC)CCNC(=O)c1nc(Cl)c(N)nc1OC` returned a melting point of 158 °C.

Compound `CCCOc1ccc(-c2ccc(N)nn2)cc1OC` returned a melting point of 147 °C.

Consider `COc1ccc(Cl)cc1C(CC(=O)O)c1ccccc1` (stereo unspecified), for which the melting point worked out at 144 °C.

For `CC(C)OCC1(C(C)(F)F)c2cc(Cl)ccc2Nc2ncccc21` (stereo unspecified), the melting point lay within 148 to 149 °C.

With `Nc1ccc(C2Nc3ccccc3C(=O)N2c2ccccc2)cc1` (stereo unspecified), the melting point stood at 191 °C.

`CCCCCCCCC1(C)SC(=O)C=C1OCC(=O)Nc1ccc(OC)cc1` (stereo unspecified) had a melting point of 99 °C.

In turn, `COc1cccc(OC)c1-c1ccc(C[C@H](NC(=O)c2c(Cl)ccc(Br)c2Cl)C(=O)O)cc1` returned a melting point of 235 °C.

With `COc1ccc(N2C(=O)C(=C3CCCN3C)c3ccccc32)cc1Cl`, the melting point was in the range of 126 to 128 °C.

In turn, `O=C(O)Cc1ccc(-c2onc3ccccc23)cc1` had a melting point of 179 to 181 °C.

For the compound `CCN1CCc2cc3ccccc3n2CC1`, the melting point lay within 44 to 46 °C.

`COc1cc2c(O)cnnc2cc1OCc1ccccc1`: the melting point fell in the range of 262 to 264 °C.

Compound `CC(C)OC(=O)NC1(c2ccccc2Cl)CCCCC1=O` (stereo unspecified) registered a melting point of 124 to 126 °C.

The compound `CCc1ccc2c(c1)Cc1cc(C(C)=O)ccc1-2` gave a melting point of 120 to 122 °C.

Take `CCN(C(=O)C(F)(F)F)c1cc(C)nc(Oc2c(C)cc(C)cc2C)c1C`: the melting point lay in the range of 110 to 111 °C.

On to `O=C1C=CC(O)(c2ccccc2)C=C1`, for which the melting point lay in the range of 102 to 103 °C.

Consider `CC(C)(O)Cn1c(CO)nc2c(N)nc3cc(OCc4cscn4)ccc3c21`, for which the melting point is 260 to 262 °C.

`CC(=O)Cc1nc2cc(C)ccc2c(=O)o1` showed a melting point of 142 to 144 °C.

As to `O=[N+]([O-])c1cnccc1Oc1ccc2[nH]ccc2c1`, the melting point lay within 182 to 184 °C.

For `OCCOc1ccc(C2=NCCO2)cc1`, the melting point was in the range of 149 to 150 °C.

Compound `CCOC(=O)COc1ccc(C(=O)c2ccc(O)cc2)c(Cl)c1Cl` yielded a melting point of 127 to 129 °C.

With `CCN(CC)c1ccc(N(CC)CC)c(N2CCNCC2)n1`, the melting point was determined as 120 °C.

Compound `N[C@@H](Cc1cccc(OC(F)(F)C(F)F)c1)[C@H](O)c1ccc(Oc2ccccc2)cc1` (racemic) gave a melting point of 85 to 86 °C.

`Nc1ccccc1CCN1CCN(c2ccccc2)CC1` gave a melting point of 103 °C.

Take `CCC(=O)Oc1cccc2c(-c3ccccc3)c3cccc(OC(=O)CC)c3c(OC(=O)CC)c12`: the melting point was determined as 216 °C.

Turning to `CCCCCCOC(=O)Oc1ccc(-c2ccc(C#N)cc2)cc1`, the melting point was 87.1 to 87.5 °C.

The compound `CCCCOC(=O)Nc1cccc(C(=O)C=CN(C)C)c1` displayed a melting point of 115 to 116 °C.

For the compound `Cc1cc(-c2ccc(C(F)(F)F)cc2)nc(-n2cnc(-c3cccc(S(N)(=O)=O)c3)c2)n1`, the melting point is 186 °C.

Turning to `CCOC(=O)/C=C(C)/C=C/C(Br)=C(/C)c1ccc2c(c1)C(C)(C)CCC2(C)C`, the melting point lay within 97 to 98.5 °C.

`CC(C)(C)c1cc(CCc2nsc(=O)o2)cc(C(C)(C)C)c1O` showed a melting point of 82 to 86 °C.

Compound `COC(=O)c1ccc(C(=O)C=C(c2cc(Cl)cc(C(F)(F)F)c2)C(F)(F)F)c2ccccc12` registered a melting point of 90 to 90.5 °C.

As for `COc1cc(C(C)=O)ccc1OC/C=C\CCl`, the melting point fell in the range of 64 to 66 °C.

In the case of `CCOC(=O)c1nn(-c2ccc(N=[N+]=[N-])cc2)c(=O)c2c(N)scc12`, the melting point lay within 169 to 170 °C.

In turn, `O=C(O)COc1cc(Cl)ccc1C(=O)NCc1ccc(Cl)c(Cl)c1` showed a melting point of 177 to 178 °C.

On to `O=C(O)CCC(=O)c1ccc(N2CCOCC2)cc1`, for which the melting point lay within 167 to 168 °C.

`CC(N)C(=O)N(CCC(=O)O)C1Cc2ccccc2C1` (stereo unspecified) gave a melting point of 205 to 206 °C.

With `COCCCNc1cccc(Oc2ccc(-c3cn(C4CCOCC4)c4ncnc(N)c34)cc2)c1C#N`, the melting point lay in the range of 205 to 207 °C.

`Oc1cc(Br)ccc1/C=N/c1ccccc1`: the melting point was found to be 129 °C.

In the case of `CN(C)C(=O)c1noc(-c2cnccc2C(F)(F)F)n1`, the melting point was 52 to 54 °C.

As for `CCOC(=O)CSC1(SCC(=O)OCC)CCC2C3CCC4=CC(=O)C=CC4(C)C3(F)C(O)CC21C` (stereo unspecified), the melting point is 125 to 127 °C.

The compound `OCCNCCc1c[nH]c2ccccc12` had a melting point of 92 °C.

Consider `CCCCNC(=O)NCC1CCN(c2ncnc3cc(OC)c(OC)cc23)CC1`, for which the melting point lay in the range of 141 to 143 °C.

`CC(C)(C)c1ccc2c(c1)C(=O)CCC2`: the melting point lay within 101 to 102 °C.

For the compound `CCCCCCCNC(=O)Nc1ccc(N2CCCCC2)cc1C(=O)NCC1CCN(C(c2ccccc2)c2ccccc2)CC1`, the melting point was in the range of 166 to 168 °C.

`O=c1cc(-c2ccc(CO)cc2)oc2ccc(O)cc12` registered a melting point of 262 to 265 °C.

In turn, `CNC(=O)c1cc(-n2cnn(Cc3ccc(F)cc3)c2=O)n[nH]1` displayed a melting point of 268 to 269 °C.

As for `COc1ccc(C(=O)Nc2c(Cl)cncc2Cl)c2c(CC(=O)O)coc12`, the melting point is 270 to 278 °C.

`CCNS(=O)(=O)Nc1ccc(C(O)(C(F)(F)F)C(F)(F)F)cc1` had a melting point of 178 to 179 °C.

In turn, `COC1=C(OC)C(=O)C(CCCCCCCCCC(=O)N[C@@H](CCSC)C(=O)O)=C(C)C1=O` returned a melting point of 83 to 85 °C.
